Literature values as cited in patent US12303592B2, “Formulations for parenteral delivery of compounds and uses thereof” (Wyeth, LLC, priority 2006, dated 2025).

Settings: white crystalline powder from Mallinckrodt; cited from earlier work

C[N+]1(CC2CC2)CC[C@]23c4c5ccc(O)c4O[C@H]2C(=O)CC[C@@]3(O)[C@H]1C5 (stereo partly shown) [MNTX, methylnaltrexone bromide]
solubility in water: freely soluble in water
